# Patent US20210068400A1, “COMPOSITIONS CONTAINING COMBINATIONS OF NITROGEN-FIXING BACTERIA AND ADDITIONAL AGENTS AND THEIR USE IN FIXING NITROGEN IN PLANT SPECIES” (GRACE BREEDING NITROGEN FIXATION TECHNOLOGIES LTD., priority 2018, published 2021)
# “And” between values parts separate entries of the source, which are not always exact repeats. Equal entries are not always repeated.
# How the values were obtained:
# [1] = tested on: maize plants; assay: Maize field trial 3, growth parameters (Example 3); type: in vivo, maize (Zea mays); details: 3 months after sowing
# Description: In some of the treatments (as explained hereinbelow), some or all of the active substances were added in the form of granules to the furrow in which the plants had been seeded. The granules were prepared by soaking 1 kg of Perlite granules (having a mean diameter greater than 2 mm) in the following solution: • 50 ml of the concentrated activating agent emulsion (as described above). • 930 ml water. • 10 ml Rhizobium leguminosarum biovar viceae (Cell-Tech™ granular; Monsanto Company) (Granule-R). or Bacillus subtilis (Granule-B) • 10 ml Calirus. • 1000 ml total
# This trial was sown during the Israeli growing season of 2018 using the pioneer maize silage variety number W86. The field was washed from possible nitrogen using sprinklers irrigation. The combination treatments administered to the plants which are of relevance for the present study were: • A. Positive Control—full commercial nitrogen. The plants were treated with 30 units of nitrogen per 1000 m^2 by means of applying to this area 60 kg urea containing 46% urea. • B. Negative Control—no added nitrogen. • C. Rhizobium leguminosarum biovar viceae, 3% (containing 10^9 organisms) was added to the activating agent emulsion described in ‘general methods’ hereinabove, to which Calirus (1%) was also added. Perlite granules were soaked with this mixture as described hereinabove. The granules were added to the sowing trench at a density of 2 Kg granules per 1000m^2. • D. As for treatment C, but with the granule quantity adjusted to 1 Kg granules per 1000 m^2. • E. As for treatment C, but with the granule quantity adjusted to 4 Kg granules per 1000 m^2.
# The following parameters were monitored at one timepoint during growth of the maize plants, 3 months after they were sown: • Plant stem caliber • Leaf width • Cob weight (taken from the main stems of 10 plants) • Total plant weight (10 plants) • Plant height
# The statistical significance of the difference between the various treatment groups was determined using the Tukey-Kramer HSD test.
# [2] = tested on: maize plants; assay: Maize field trial 4, total leaf nitrogen content (Example 4); type: in vivo, maize (Zea mays); details: maize leaves, 3 months after sowing
# Description: Generally, the nitrogen content of the growing plant in the field study was measured using a spectrophotometric method based on the standard method “4500-NO3_I. Cadmium Reduction Flow Injection Method” published by the Standard Methods Organization (<https://www.standardmethods.org/doi/full/10.2105/SMWW.2882.089). This method is based on the conversion of nitrates in an aqueous plant material extract to nitrites by passing the extract through a copperized cadmium column. Subsequent processing steps convert the nitrites to a magenta-colored dye having an absorbance peak at 540 nm.
# This trial was sown during the Israeli growing season of 2018 using the pioneer maize silage variety number W86. The field was washed from possible nitrogen using sprinkler irrigation. The combination treatments administered to the plants which are of relevance for the present study were: • PC. Positive Control—full commercial nitrogen. The plants were treated with 30 units of nitrogen per 1000 m^2 by means of applying to this area 60 kg urea containing 46% urea. • NC. Negative Control—no nitrogen. • 1. […]
# The average total leaf nitrogen content was measured at one timepoint during growth of the maize plants, 3 months after sowing.
# [3] = tested on: wheat (Galil variety); assay: Wheat field trial 5 (Example 5); type: in vivo
# Description: Two different agricultural sites in Israel were selected for field trials in which the effects of compositions of the present invention on wheat crops were investigated. The various compositions were administered to the growing wheat (Galil variety) as described in Examples 3 and 4, hereinabove. The treatments used in this study are as follows:
# B. Negative control (no nitrogen source)
# A. Granules prepared according to Example 3, applied at a density of 4 kg granules per 1000 m^2.
# C. Granules prepared according to Example 3, applied at a density of 2 kg granules per 1000 m^2.
# F. Positive control—full commercial nitrogen. The plants were treated with 30 units of nitrogen per 1000 m^2 by means of applying to this area 60kg urea containing 46% urea.
# The following parameters were measured in the wheat, in order to assess the effect of the treatment compositions on plant growth: […]
# [4] = tested on: Tomato seedlings inoculated with bacterial and fungal cocktails; assay: Inoculation of tomato seedlings; type: in vivo; details: 5 days following treatment; concentration 3; FIG. 31
# Description: Tomato seedlings were inoculated with 10 cc of each test mixtures containing Rhizobium species and various combinations of activating phytochemicals. (including the bacterial and fungal cocktails described below) […].
# The health of each plant was assessed 5 days following treatment, using a semi-quantitative inoculation index (0=healthy, 5=dead).
# The composition and concentration of the various test mixtures, as well as the number of different activating agents used in combination are summarized in the following two tables (all concentrations are given as % v/v): […]
# [5] = tested on: NO production; assay: Inhibition of NO production in activated RAW 264.7 macrophages (Griess assay); type: cell-based; details: Mus musculus, RAW264.7, 24 h, RAW 264.7 macrophages activated with LPS and IFN-γ
# Description: RAW 264.7 macrophages were grown in flat-bottomed flasks using a standard growth medium (DMEM supplemented with 5% FBS, antibiotics and glutamine. The cells were maintained in accordance with standard procedures well known in the art. After the cells reached confluence, they were removed from the flasks using mechanical means and then concentrated by centrifuging and resuspended in a small volume of fresh culture medium. The cell concentration was adjusted with growth medium in order that about 75,000 cells could be added to each well of a 96-well plate. A combination of 25 μg/mL LPS and 10 U/ml IFN-γ DMEM, was used for activation of the macrophages. The various test agents were added to the wells one hour prior to activation. The cells were then incubated for a further 24 hours, prior to assaying the inflammatory mediator production and cell viability. The production of NO by the macrophages subjected to the various treatments was assayed using the Griess reagent (equal volumes of 1% sulphanilamide and 0.1% […]-diamine in 5% HCl). 70 μl of supernatant from each test well was transferred to a fresh 96-well plate and mixed with 70 μL of Griess reagent and the violet color produced was measured at 540 nm.
# [6] = tested on: TNF-α production; assay: Inhibition of TNF-α production in activated RAW 264.7 macrophages (ELISA); type: cell-based; details: Mus musculus, RAW264.7; RAW 264.7 macrophages activated with LPS and IFN-γ, 24 hours
# Description: RAW 264.7 macrophages were grown in flat-bottomed flasks using a standard growth medium (DMEM supplemented with 5% FBS, antibiotics and glutamine. The cells were maintained in accordance with standard procedures well known in the art. After the cells reached confluence, they were removed from the flasks using mechanical means and then concentrated by centrifuging and resuspended in a small volume of fresh culture medium. The cell concentration was adjusted with growth medium in order that about 75,000 cells could be added to each well of a 96-well plate. A combination of 25 μg/mL LPS and 10 U/ml IFN-γ DMEM, was used for activation of the macrophages. The various test agents were added to the wells one hour prior to activation. The cells were then incubated for a further 24 hours, prior to assaying the inflammatory mediator production and cell viability. A sandwich ELISA was used to determine TNF-α concentration. The primary antibody was used at a concentration of 0.5 μg/mL in PBS. Serial dilutions of TNF-α standard from 0 to 1000 pg/mL in diluent (0.05% Tween-20, 0.1% BSA in PBS) were used as internal standard. TNF-α was detected with a biotinylated second antibody and an avidin peroxidase conjugate with TMB as detection reagent. The color development was monitored at 655 nm, taking readings after every 5 minutes. After 25 minutes, the reaction was stopped using 0.5 M sulphuric acid and the absorbance was measured at 450 nm.
# [7] = tested on: RAW 264.7 macrophages; assay: Cell viability, Alamar Blue assay; type: cell-based
# Description: RAW 264.7 macrophages were grown in flat-bottomed flasks using a standard growth medium (DMEM supplemented with 5% FBS, antibiotics and glutamine. The cells were maintained in accordance with standard procedures well known in the art. After the cells reached confluence, they were removed from the flasks using mechanical means and then concentrated by centrifuging and resuspended in a small volume of fresh culture medium. The cell concentration was adjusted with growth medium in order that about 75,000 cells could be added to each well of a 96-well plate. A combination of 25 μg/mL LPS and 10 U/ml IFN-γ DMEM, was used for activation of the macrophages. The various test agents were added to the wells one hour prior to activation. The cells were then incubated for a further 24 hours, prior to assaying the inflammatory mediator production and cell viability.
# The Alamar Blue assay of viability was performed by adding 100 μl of a 10% Alamar Blue solution to each well and incubating at 37° C. for 1-2 hr. Fluorescence was measured (excitation at 545 nm and emission at 595 nm) and expressed as a percentage of the values in untreated control cells.
# [8] = tested on: Clavibacter michiganensis sp. Michiganensis (Cmm); assay: Survival of Cmm after co-incubation in test tubes, colony count; type: cell-based; details: Example 12, contact time 3 days
# Description: Various combinations of a 3% Rhizobium sp. preparation together with an emulsion containing 5 activating agents (E-91) or one of the components of said emulsion (naringin) and a culture of the plant pathogen Cmm (10^5-10^6 CFU/ml final concentration) were incubated in test tubes for up to 3 days (4 replicates per combination). At the end of the 3 day incubation period the contents of the test tubes containing all these components were plated on to growth medium and the numbers of colonies of Cmm and Rhizobium species for each test condition (CFU/ml) were measured.
# The emulsion containing the 5 activating agents (Sclaerol, Naringin, Nootkatone, Stevia and CBD; referred to in the results table hereinbelow as 5% plant emulsion E-91) was prepared as described in Example 6, hereinabove.
# This study was conducted in essentially the same manner as the study presented in Example 12. In the present study, however, the effect of the 5-component activating agent emulsion (5% plant emulsion E91) is compared with the following combinations of activating agents: […]
# [9] = at the IC50 for inhibition of NO production
# [10] = at the IC50 for inhibition of TNF-α production
compound,measurement,setting,value
"NC(N)=O [A. Positive control - full nitrogen, urea]",Total plant weight (10 plants),[1]; 10 plants,11.81 kg
same,Mean cob weight (10 plants),[1]; cobs from the main stems of 10 plants,3.96 kg
same,Mean Plant stem caliber,[1]; maize,37.2 mm
same,Mean leaf width,[1]; maize,10.5 cm
same,Plant height,[1]; mean of 10 plants,2.72 m
same,AVERAGE N2 CONTENT (total leaf nitrogen),[2],3.16
same,Average wheat grain yield,[3]; from each of 6 2 m plots,1.11 kg
same,Flag leaf width,[3]; wheat,2.0 cm
same,Main shoot diameter,[3]; wheat,0.42 cm
same,No. of side shoots,[3]; wheat,1.3
same,"Average nitrogen content, flag leaves",[3]; wheat flag leaf,2.94
"C=C(C)[C@@H]1CCC(C)=C[C@H]1c1c(O)cc(CCCCC)cc1O [Cannabidiol (CBD; hemp oil), cannabidiol]","Protection of tomato plants (inoculation index 0=healthy, 5=dead)",[4],highly active even when present as the sole activating agent
C[C@@H]1O[C@@H](O[C@H]2[C@H](Oc3cc(O)c4c(c3)O[C@H](c3ccc(O)cc3)CC4=O)O[C@H](CO)[C@@H](O)[C@@H]2O)[C@H](O)[C@H](O)[C@H]1O [Naringin],IC50,[5],40 µg/mL
same,IC50,[6],90 µg/mL
same,Cell viability (% of cell survival),[7]; [9],90.10 ± 4.2%
same,Cell viability (% of cell survival),[7]; [10],91.50 ± 5.2%
same,"Cmm count, MEAN",[8]; mean of 4 replicates,7.75 × 10^5 CFU/ml
same,"Cmm count, individual replicates","[8]; replicates 1-4, listed as Cmm + 0.1% Naringin",6.5 × 10^5 CFU/ml and 8.3 × 10^5 CFU/ml and 7.7 × 10^5 CFU/ml and 8.6 × 10^5 CFU/ml
C=C[C@](C)(O)CC[C@@H]1[C@@]2(C)CCCC(C)(C)[C@@H]2CC[C@@]1(C)O [Sclareol],IC50,[5],40 µg/mL
same,IC50,[6],80 µg/mL
same,Cell viability (% of cell survival),[7]; [9],96.20 ± 2.1%
same,Cell viability (% of cell survival),[7]; [10],95.30 ± 2.2%
C=C1C[C@@]23CC[C@H]4[C@@](C)(CCC[C@@]4(C)C(=O)O)[C@@H]2CC[C@]1(O)C3 [Steviol],IC50,[6],80 µg/mL
